# Test results from patent publication US8772297B2, “TGF-β signal transduction inhibitor” (Kyoto University, priority 2010, dated 2014).
# System: TGF-β signal transduction (Smad3/Smad4 complex activation) in x9CAGA/CCL64 cells
# Experiment: Evaluation of TGF-β signal transduction inhibitory activity (CAGA-luciferase reporter, x9CAGA/CCL64 cells stimulated with human TGF-β1)
# Type: cell-based, mink
# Conditions: 0.5 ng/ml human TGF-β1
# Description: The biological activity of a compound was determined by measuring the activation of Smad3/Smad4 complex which is a transcription factor showing activation induced by TGF-β stimulation. That is, a reporter plasmid having a DNA sequence (CAGA sequence), which is activated by binding to Smad3/Smad4 complex, is linked to the upstream of the luciferase gene (luminescence enzyme) was prepared. Mink lung epithelial cells CCL64 (named as x9CAGA/CCL64 cells) stably incorporating this reporter plasmid were established. The x9CAGA/CCL64 cells were cultured in DMEM medium containing 10% FBS, penicillin (100 U/ml), streptomycin ([…]), and blasticidin S (1 μg/ml). The x9CAGA/CCL64 cells were seeded in a 96 well plate at a concentration of 1.0×10^4 cells/well, and cultured in a 5% CO2 incubator at 37° C. The next day, the medium was changed to DMEM medium containing 0.2% FBS, and the test compound was added. […] After culture for 16 hr, the cells were washed with PBS, and lysed with 30 μl of cell lysis solution. […] The luminescence level of each well was measured using a Packard EnVision plate reader. The TGF-β signal transduction inhibitory activity of each compound in the x9CAGA/CCL64 cells was calculated from the ratio of the measurement values of the test compound-free well and the well with addition.
row,IC50,Molecule
1,0.8 µM,"Cc1c(C)c(S(=O)(=O)NCC2CCN(C(=O)OC(C)(C)C)CC2)c(C)c(S(=O)(=O)Nc2ccc(C(C)(C)C)cc2)c1C [Y335, 4-{[3-(4-tert-butylphenylsulfamoyl)-2,4,5,6-tetramethylbenzenesulfonylamino]methyl}piperidine-1-carboxylic acid tert-butyl ester]"
2,66 µM,"CN(C)c1ccc(NS(=O)(=O)c2cccc(S(=O)(=O)NCC3CCNCC3)c2)cc1-c1ccco1 [Y516, 4-{[3-(4-dimethylamino-3-furan-2-yl-phenylsulfamoyl)benzenesulfonylamino]methyl}piperidine]"
3,3.9 µM,"CCCC(=O)N1CCC(CNS(=O)(=O)c2cccc(S(=O)(=O)Nc3ccc(N(C)C)c(-c4ccco4)c3)c2)CC1 [Y639, 4-{[3-(4-dimethylamino-3-furan-2-yl-phenylsulfamoyl)benzenesulfonylamino]methyl}-1-butyryl-piperidine]"

# Same assay, conditions: 20 μM test compound, 0.5 ng/ml human TGF-β1
Molecule,inhibitory activity (%),inhibition at 20 µM
4-{[3-(4-oxanylmethoxyphenylsulfamoyl)benzenesulfonylamino]methyl}-piperidine-1-carboxylic acid tert-butyl ester [Y198],(>30.0%),
"Cc1ccc(N(C)S(=O)(=O)c2cccc(S(=O)(=O)N(C)CC3CCN(C(=O)OC(C)(C)C)CC3)c2)cc1 [Y191, 4-({methyl-[3-(methyl-p-tolylsulfamoyl)benzenesulfonyl]amino}methyl)piperidine-1-carboxylic acid tert-butyl ester]",,54%
"CC(=O)c1ccc(NS(=O)(=O)c2cccc(S(=O)(=O)NCC3CCN(C(=O)OC(C)(C)C)CC3)c2)cc1 [Y192, 4-{[3-(4-acetylphenylsulfamoyl)benzenesulfonylamino]methyl}piperidine-1-carboxylic acid tert-butyl ester]",,> 18.4%
"CC(O)c1ccc(NS(=O)(=O)c2cccc(S(=O)(=O)NCC3CCN(C(=O)OC(C)(C)C)CC3)c2)cc1 (centres unmarked) [Y195, 4-({3-[4-(1-hydroxyethyl)phenylsulfamoyl]benzenesulfonylamino}methyl)-piperidine-1-carboxylic acid tert-butyl ester]",,> 12.2%
"CN(CC1CCN(C(=O)OC(C)(C)C)CC1)S(=O)(=O)c1cccc(S(=O)(=O)N(C)c2ccc(C(C)(C)C)cc2)c1 [Y205, 4-[({3-[(4-tert-butylphenyl)methylsulfamoyl]benzenesulfonyl}methylamino)-methyl]piperidine-1-carboxylic acid tert-butyl ester]",,60%

# Same assay, conditions: 50 μM test compound, 0.5 ng/ml human TGF-β1
row,Molecule,inhibition at 50 µM
1,"CC(C)(C)OC(=O)N1CCC(CNS(=O)(=O)c2cccc(S(=O)(=O)N3CCCCC3)c2)CC1 [Y029, 4-{[3-(piperidine-1-sulfonyl)benzenesulfonylamino]methyl}piperidine-1-carboxylic acid tert-butyl ester]",88%
2,"CC(C)(C)OC(=O)N1CCN(S(=O)(=O)c2cccc(S(=O)(=O)N3CCCCC3)c2)CC1 [Y043, 4-[3-(piperidine-1-sulfonyl)benzenesulfonyl]piperazine-1-carboxylic acid tert-butyl ester]",67%
3,"O=C(OCc1ccccc1)N1CCC(CNS(=O)(=O)c2cccc(S(=O)(=O)N3CCCCC3)c2)CC1 [Y053, 4-{[3-(piperidine-1-sulfonyl)benzenesulfonylamino]-methyl}-piperidine-1-carboxylic acid benzyl ester]",67%
4,"CCN(CC)S(=O)(=O)c1cccc(S(=O)(=O)NCC2CCN(C(=O)OC(C)(C)C)CC2)c1 [Y080, 4-[(3-diethylsulfamoylbenzenesulfonylamino)methyl]piperidine-1-carboxylic acid tert-butyl ester]",66%
5,"CC(C)(C)OC(=O)N1CCC(CNS(=O)(=O)c2cccc(S(=O)(=O)N3CCOCC3)c2)CC1 [Y081, 4-{[3-(morpholine-4-sulfonyl)benzenesulfonylamino]methyl}piperidine-1-carboxylic acid tert-butyl ester]",45%
6,"CC(C)(C)OC(=O)N1CCC(CNS(=O)(=O)c2cccc(S(N)(=O)=O)c2)CC1 [Y082, 4-[(3-sulfamoylbenzenesulfonylamino)methyl]piperidine-1-carboxylic acid tert-butyl ester]",29%
7,"CC(C)(C)OC(=O)N1CCC(CNS(=O)(=O)c2ccccc2)CC1 [Y083, 4-(benzenesulfonylaminomethyl)piperidine-1-carboxylic acid tert-butyl ester]",24%
8,"CC(C)(C)OC(=O)N1CCC(CNS(=O)(=O)c2cccc(S(=O)(=O)NCC3CCCCC3)c2)CC1 [Y101, 4-{[3-(cyclohexylmethylsulfamoyl)benzenesulfonylamino]methyl}-piperidine-1-carboxylic acid tert-butyl ester]",74%

# System: mouse bile duct ligation induced hepatic fibrosis model
# Experiment: Anti-fibrillization action in mouse bile duct ligation induced hepatic fibrosis model (BDL model)
# Type: in vivo
# Conditions: ICR mice, tail vein once a day for 14 days, qPCR vs GAPDH, FIG. 4
# Description: Hepatopathy caused by accumulation of bile in the liver and therewith associated liver fibrillization are induced by ligating the bile duct of mouse. The effect of the test compound on the hepatopathy and liver fibrillization associated therewith was evaluated. […]
# mRNA was extracted from the hepatic tissue preserved in RNALater by using an RNA purification kit RNeasy Micro Kit (manufactured by QIAGEN), and the RNA concentration was determined using a spectrophotometer (Nano Drop). […] Using SYBR® Premix EX Taq™ (manufactured by TAKARA), a reaction mixture was prepared according to the package insert, qPCR reaction was performed using respective primers for αSMA and the internal standard GAPDH (manufactured by Invitrogen), and the mRNA expression level was quantified.
row,Molecule,mRNA expression level of α smooth muscle actin in the liver tissue
1,"CN(C)c1ccc(NS(=O)(=O)c2cccc(S(=O)(=O)NCC3CCNCC3)c2)cc1-c1ccco1 [Y516, 4-{[3-(4-dimethylamino-3-furan-2-yl-phenylsulfamoyl)benzenesulfonylamino]methyl}piperidine]",significantly suppressed
